Data taken from ChEMBL document CHEMBL1128858, “Z-()-1-azabicyclo[2.2.1]heptan-3-one, O-(3-aryl-2-propynyl) oximes as potential m1-subtype selective muscarinic agonists” (Bioorg Med Chem Lett, 1995).

How the values were obtained:
[1] = target: T1, Muscarinic acetylcholine receptor (Rattus norvegicus) (UniProt P08482+P08483+P08485+P08911+P10980); experiment: Ratio of QNB/CMD binding affinities to predict agonistic efficacy at muscarinic receptor; type: protein assay
[2] = target: Muscarinic acetylcholine receptor; experiment: Binding affinity towards muscarinic receptor using [3H]quinuclidinyl benzilate (QNB) to label antagonist sites in membrane preparations from rat neocortex
[3] = target: Muscarinic acetylcholine receptor; experiment: Binding affinity towards muscarinic receptor using [3H]cis-methyldioxolane (CMD) to label agonist sites in membrane preparations from rat neocortex; type: tissue-based
[4] = target: T2, Muscarinic acetylcholine receptor M2 (Homo sapiens) (UniProt P08172); experiment: Inhibitory activity against forskolin-stimulated accumulation of cyclic adenosine monophosphate (cAMP) in CHO cells expressing human m2 receptor (max. concentration. 1 mM); type: functional, cell-based
T2 sequence (whole entry): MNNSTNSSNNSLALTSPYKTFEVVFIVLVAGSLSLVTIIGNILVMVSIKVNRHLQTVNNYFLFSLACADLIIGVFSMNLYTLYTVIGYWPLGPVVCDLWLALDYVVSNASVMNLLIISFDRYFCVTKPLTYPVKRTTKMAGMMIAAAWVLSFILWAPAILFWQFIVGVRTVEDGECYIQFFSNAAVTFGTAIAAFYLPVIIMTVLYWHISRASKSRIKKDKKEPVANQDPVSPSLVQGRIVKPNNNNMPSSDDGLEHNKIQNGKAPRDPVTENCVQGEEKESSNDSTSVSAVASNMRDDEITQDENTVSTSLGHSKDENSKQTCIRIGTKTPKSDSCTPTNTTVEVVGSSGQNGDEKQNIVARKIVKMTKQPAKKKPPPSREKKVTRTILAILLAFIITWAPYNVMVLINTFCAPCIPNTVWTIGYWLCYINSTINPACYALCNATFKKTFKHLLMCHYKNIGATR

[5] = target: T3, Muscarinic acetylcholine receptor M5 (Homo sapiens) (UniProt P08912); experiment: Ability to stimulate inositol phosphate(PI) accumulation in CHO cells expressing human m5 receptor (max. concentration. 100 uM); type: functional, cell-based
T3 sequence (whole entry): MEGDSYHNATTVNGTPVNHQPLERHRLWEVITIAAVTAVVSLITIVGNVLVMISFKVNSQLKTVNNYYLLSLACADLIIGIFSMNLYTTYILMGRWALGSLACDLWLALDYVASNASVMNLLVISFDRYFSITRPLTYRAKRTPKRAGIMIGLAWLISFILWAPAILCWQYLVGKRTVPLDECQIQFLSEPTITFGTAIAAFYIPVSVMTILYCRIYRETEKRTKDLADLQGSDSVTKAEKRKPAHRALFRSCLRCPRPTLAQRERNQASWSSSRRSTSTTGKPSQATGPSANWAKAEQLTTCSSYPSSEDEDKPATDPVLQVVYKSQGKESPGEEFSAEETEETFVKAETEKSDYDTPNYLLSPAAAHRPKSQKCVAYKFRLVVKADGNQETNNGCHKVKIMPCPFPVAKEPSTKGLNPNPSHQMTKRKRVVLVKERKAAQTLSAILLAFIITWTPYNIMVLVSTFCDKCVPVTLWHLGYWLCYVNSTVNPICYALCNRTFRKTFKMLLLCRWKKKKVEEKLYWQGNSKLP

[6] = target: T4, Muscarinic acetylcholine receptor M4 (Homo sapiens) (UniProt P08173); experiment: Inhibitory activity against forskolin-stimulated accumulation of cyclic adenosine monophosphate (cAMP) in CHO cells expressing human m4 receptor (max. concentration. 1 mM); type: functional, cell-based
T4 sequence (whole entry): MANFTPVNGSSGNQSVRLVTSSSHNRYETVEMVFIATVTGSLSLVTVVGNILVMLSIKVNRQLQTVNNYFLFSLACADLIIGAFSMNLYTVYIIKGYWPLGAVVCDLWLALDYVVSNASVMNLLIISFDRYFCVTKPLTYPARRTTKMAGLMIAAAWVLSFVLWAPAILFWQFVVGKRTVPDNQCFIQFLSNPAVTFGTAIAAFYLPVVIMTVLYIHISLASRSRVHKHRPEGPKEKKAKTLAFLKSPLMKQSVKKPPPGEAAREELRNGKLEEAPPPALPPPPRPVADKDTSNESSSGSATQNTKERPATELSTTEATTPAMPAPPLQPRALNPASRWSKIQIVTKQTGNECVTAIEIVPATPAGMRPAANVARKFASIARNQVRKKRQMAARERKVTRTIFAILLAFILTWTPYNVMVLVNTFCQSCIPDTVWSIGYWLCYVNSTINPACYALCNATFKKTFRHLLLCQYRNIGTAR

[7] = target: T1, Muscarinic acetylcholine receptor (Rattus norvegicus); experiment: Binding affinity towards muscarinic receptor using [3H]cis-methyldioxolane (CMD) to label agonist sites in membrane preparations from rat neocortex at 1 uM; type: tissue-based
[8] = target: T1, Muscarinic acetylcholine receptor (Rattus norvegicus); experiment: Binding affinity towards muscarinic receptor using [3H]quinuclidinyl benzilate (QNB) to label antagonist sites in membrane preparations from rat neocortex at 100 nM
[9] = target: T1, Muscarinic acetylcholine receptor (Rattus norvegicus); experiment: Binding affinity towards muscarinic receptor using [3H]cis-methyldioxolane (CMD) to label agonist sites in membrane preparations from rat neocortex at 100 nM; type: tissue-based

Structure (SMILES): COc1ccc(C#CCO/N=C2\CN3CCC2C3)cc1OC (stereo not given)
- Ratio [1]: 303
- IC50 [2]: 42449 nM
- IC50 [3]: 140 nM

Structure (SMILES): C[N+](C)(C)CCOC(N)=O
- inhibition [4]: 58%
- PI [5]: 100%
- inhibition [6]: 60%

Structure (SMILES): Fc1cccc(C#CCO/N=C2\CN3CCC2C3)c1 (stereo not given)
- Ratio [1]: 132
- IC50 [2]: 4925 nM
- IC50 [3]: 37 nM

Structure (SMILES): Clc1ccccc1C#CCO/N=C1\CN2CCC1C2 (stereo not given)
- Ratio [1]: 107
- IC50 [2]: 1305 nM
- IC50 [3]: 12 nM

Structure (SMILES): Fc1ccc(C#CCO/N=C2\CN3CCC2C3)cc1 (stereo not given)
- Ratio [1]: 204
- IC50 [2]: 6092 nM
- IC50 [3]: 30 nM

Structure (SMILES): O=[N+]([O-])c1cccc(C#CCO/N=C2\CN3CCC2C3)c1 (stereo not given)
- Ratio [1]: 226
- IC50 [2]: 6399 nM
- IC50 [3]: 28 nM

Structure (SMILES): COc1cccc(C#CCO/N=C2\CN3CCC2C3)c1 (stereo not given)
- inhibition [4]: 0%
- PI [5]: 11%
- inhibition [6]: 0%
- Ratio [1]: 250
- IC50 [2]: 6927 nM
- IC50 [3]: 28 nM

Structure (SMILES): Fc1ccccc1C#CCO/N=C1\CN2CCC1C2 (stereo not given)
- Ratio [1]: 159
- IC50 [2]: 4443 nM
- IC50 [3]: 28 nM

Structure (SMILES): Cc1cccc(C#CCO/N=C2\CN3CCC2C3)c1 (stereo not given)
- Ratio [1]: 186
- IC50 [2]: 5195 nM
- IC50 [3]: 28 nM

Structure (SMILES): Clc1cc(Cl)cc(C#CCO/N=C2\CN3CCC2C3)c1 (stereo not given)
- inhibition [7]: 53%
- inhibition [8]: 18%

Structure (SMILES): C(#Cc1ccccc1)CO/N=C1\CN2CCC1C2 (stereo not given)
- inhibition [4]: 0%
- PI [5]: 1%
- inhibition [6]: 0%
- Ratio [1]: 109
- IC50 [2]: 5012 nM
- IC50 [3]: 46 nM

Structure (SMILES): Cc1ccccc1C#CCO/N=C1\CN2CCC1C2 (stereo not given)
- inhibition [9]: 82%
- inhibition [8]: 56%

Structure (SMILES): COc1ccccc1C#CCO/N=C1\CN2CCC1C2 (stereo not given)
- Ratio [1]: 81
- IC50 [2]: 17658 nM
- IC50 [3]: 219 nM

Structure (SMILES): FC(F)(F)c1cccc(C#CCO/N=C2\CN3CCC2C3)c1 (stereo not given)
- Ratio [1]: 134
- IC50 [2]: 4237 nM
- IC50 [3]: 32 nM

Structure (SMILES): Clc1ccc(C#CCO/N=C2\CN3CCC2C3)cc1 (stereo not given)
- Ratio [1]: 119
- IC50 [2]: 6300 nM
- IC50 [3]: 53 nM

Structure (SMILES): Cc1ccc(C#CCO/N=C2\CN3CCC2C3)cc1 (stereo not given)
- Ratio [1]: 125
- IC50 [2]: 11089 nM
- IC50 [3]: 89 nM

Structure (SMILES): COc1ccc(C#CCO/N=C2\CN3CCC2C3)cc1 (stereo not given)
- Ratio [1]: 119
- IC50 [2]: 13101 nM
- IC50 [3]: 110 nM

Structure (SMILES): Clc1cccc(C#CCO/N=C2\CN3CCC2C3)c1 (stereo not given)
- Ratio [1]: 202
- IC50 [2]: 3882 nM
- IC50 [3]: 19 nM

Structure (SMILES): FC(F)(F)c1cc(C#CCO/N=C2\CN3CCC2C3)cc(C(F)(F)F)c1 (stereo not given)
- inhibition [7]: 55%
- inhibition [8]: 18%

Structure (SMILES): C(#Cc1ccc2c(c1)OCO2)CO/N=C1\CN2CCC1C2 (stereo not given)
- Ratio [1]: 110
- IC50 [2]: 2547 nM
- IC50 [3]: 23 nM

Structure (SMILES): C(#Cc1ccc2c(c1)OCCO2)CO/N=C1\CN2CCC1C2 (stereo not given)
- inhibition [7]: 39%
- inhibition [8]: 0%
